Here are results for 16 compounds from PubChem BioAssay (NCI).

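Each compound was tested at five concentrations against cells in 96-well plates for 48 hours. TGI denotes the concentration required for complete inhibition of growth.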 Bounds are passed on as bounds.

The first experiment relates to HCT-15 colon. In words: inhibition of tumour cell growth, NCI panel, 48 h.
Compound `CC(C)CC(NC(=O)C(CI)Cc1ccccc1)C(=O)Nc1ccccc1` (stereo unspecified) gave a TGI of over 100 µM.

Turning to `CC(C)(C)OC(=O)NC(Cc1ccc(OC(C)(C)C)cc1)C(=O)N[C@H]1CCC[C@H]1C(=O)NC(Cc1ccccc1)C(=O)N1CCCC1C(N)=O` (stereo partly specified), the TGI was over 100 µM.

Take `c1ccc(NN=C(c2ccccn2)c2ccccn2)nc1`: the TGI is over 100 µM.

Turning to `N#Cc1[nH]c(=S)[nH]c1N`, the TGI is over 100 µM.

Regarding `N#CC1=C(Nc2ccccc2)SC=C(c2ccccc2)NC1=NCc1ccccc1`, the TGI is over 100 µM.

`COC1=CC2C(c3cc4ccccc4n3S(=O)(=O)c3ccccc3)CC1CN2C(=O)OCc1ccccc1` (stereo unspecified) registered a TGI of over 100 µM.

`CNC(=S)N=Nc1c(O)n(CN2CCOCC2)c2ccc([N+](=O)[O-])cc12`: the TGI stood at 26.6 µM.

`COc1ccc(-c2csc(Cc3nc4ccccc4c(=O)n3-c3ccc(Cl)cc3)n2)cc1`: the TGI worked out at 97.6 µM.

`COc1ccc(NC(=O)N(C)CC2(O)CCC(C(C)(C)C)CC2)cc1` (stereo unspecified): the TGI was over 100 µM.

`CN(C)CCNC(=O)c1ccc2nc3c(nc2c1)C(=O)c1ccccc1-3` gave a TGI of over 100 µM.

On to `C/C(=N/NC(=S)Nc1ccc(Cl)cc1)c1cccc(/C(C)=N\NC(=S)Nc2ccc(Cl)cc2)n1`, for which the TGI was over 100 µM.

On to `COC(=O)C1(C(=O)OC)C/C(C)=C(/C)SCCCS1`, for which the TGI is over 100 µM.

For `CC1(C)CC(=O)C(C=NC(=O)c2ccncc2)=C(O)C1`, the TGI is over 100 µM.

The test system of a further experiment is SK-MEL-2 melanoma. As to the kind of experiment: inhibition of tumour cell growth, NCI panel, 48 h.
In turn, `S=c1[nH]c(=S)c2nnn(-c3ccccc3)c2[nH]1` yielded a TGI of over 100 µM.

In turn, `CC(C)CC(NC(=O)C(CI)Cc1ccccc1)C(=O)Nc1ccccc1` (stereo unspecified) showed a TGI of over 100 µM.

Compound `CC(C)(C)OC(=O)NC(Cc1ccc(OC(C)(C)C)cc1)C(=O)N[C@H]1CCC[C@H]1C(=O)NC(Cc1ccccc1)C(=O)N1CCCC1C(N)=O` (stereo partly specified) displayed a TGI of over 100 µM.

With `c1ccc(NN=C(c2ccccn2)c2ccccn2)nc1`, the TGI is over 100 µM.

As for `N#Cc1[nH]c(=S)[nH]c1N`, the TGI is over 100 µM.

The compound `N#CC1=C(Nc2ccccc2)SC=C(c2ccccc2)NC1=NCc1ccccc1` returned a TGI of over 100 µM.

Compound `COC1=CC2C(c3cc4ccccc4n3S(=O)(=O)c3ccccc3)CC1CN2C(=O)OCc1ccccc1` (stereo unspecified) yielded a TGI of 54.2 µM.

As to `CNC(=S)N=Nc1c(O)n(CN2CCOCC2)c2ccc([N+](=O)[O-])cc12`, the TGI was found to be 21.2 µM.

Consider `COc1ccc(-c2csc(Cc3nc4ccccc4c(=O)n3-c3ccc(Cl)cc3)n2)cc1`, for which the TGI turned out to be 35.3 µM.

For the compound `COc1ccc(NC(=O)N(C)CC2(O)CCC(C(C)(C)C)CC2)cc1` (stereo unspecified), the TGI was over 100 µM.

`C/C(=N/NC(=S)Nc1ccc(Cl)cc1)c1cccc(/C(C)=N\NC(=S)Nc2ccc(Cl)cc2)n1` gave a TGI of 49.2 µM.

For `COC(=O)C1(C(=O)OC)C/C(C)=C(/C)SCCCS1`, the TGI is over 100 µM.

In the case of `CC1(C)CC(=O)C(C=NC(=O)c2ccncc2)=C(O)C1`, the TGI was over 100 µM.

In a further experiment the test system is TK-10 renal. As to the kind of experiment: inhibition of tumour cell growth, NCI panel, 48 h.
`S=c1[nH]c(=S)c2nnn(-c3ccccc3)c2[nH]1` displayed a TGI of over 100 µM.

Regarding `CC(C)CC(NC(=O)C(CI)Cc1ccccc1)C(=O)Nc1ccccc1` (stereo unspecified), the TGI is over 100 µM.

The compound `CC(CO)CCNc1ncnc2c1ncn2CCC(=O)OC(C)(C)C` (stereo unspecified) had a TGI of over 100 µM.

The compound `COc1ccc(-n2cnn3c(=O)c4cn[nH]c4nc23)cc1` had a TGI of over 10 µM.

In turn, `CC(C)(C)OC(=O)NC(Cc1ccc(OC(C)(C)C)cc1)C(=O)N[C@H]1CCC[C@H]1C(=O)NC(Cc1ccccc1)C(=O)N1CCCC1C(N)=O` (stereo partly specified) gave a TGI of over 100 µM.

In turn, `c1ccc(NN=C(c2ccccn2)c2ccccn2)nc1` came in with a TGI of over 100 µM.

The compound `N#Cc1[nH]c(=S)[nH]c1N` displayed a TGI of over 100 µM.

The compound `N#CC1=C(Nc2ccccc2)SC=C(c2ccccc2)NC1=NCc1ccccc1` returned a TGI of over 100 µM.

`COC1=CC2C(c3cc4ccccc4n3S(=O)(=O)c3ccccc3)CC1CN2C(=O)OCc1ccccc1` (stereo unspecified) showed a TGI of over 100 µM.

Compound `CNC(=S)N=Nc1c(O)n(CN2CCOCC2)c2ccc([N+](=O)[O-])cc12` showed a TGI of 29.8 µM.

In turn, `COc1ccc(-c2csc(Cc3nc4ccccc4c(=O)n3-c3ccc(Cl)cc3)n2)cc1` registered a TGI of over 100 µM.

`COc1ccc(NC(=O)N(C)CC2(O)CCC(C(C)(C)C)CC2)cc1` (stereo unspecified) returned a TGI of over 100 µM.

The compound `CN(C)CCNC(=O)c1ccc2nc3c(nc2c1)C(=O)c1ccccc1-3` gave a TGI of over 100 µM.

`C/C(=N/NC(=S)Nc1ccc(Cl)cc1)c1cccc(/C(C)=N\NC(=S)Nc2ccc(Cl)cc2)n1` displayed a TGI of over 100 µM.

`COC(=O)C1(C(=O)OC)C/C(C)=C(/C)SCCCS1` registered a TGI of over 100 µM.

As to `CC1(C)CC(=O)C(C=NC(=O)c2ccncc2)=C(O)C1`, the TGI is over 100 µM.

The subject of a further experiment is OVCAR-4 ovarian. As to the kind of experiment: inhibition of tumour cell growth, NCI panel, 48 h.
Regarding `CC(C)CC(NC(=O)C(CI)Cc1ccccc1)C(=O)Nc1ccccc1` (stereo unspecified), the TGI was over 100 µM.

`CC(CO)CCNc1ncnc2c1ncn2CCC(=O)OC(C)(C)C` (stereo unspecified): the TGI is over 100 µM.

`COc1ccc(-n2cnn3c(=O)c4cn[nH]c4nc23)cc1` returned a TGI of over 10 µM.

Take `CC(C)(C)OC(=O)NC(Cc1ccc(OC(C)(C)C)cc1)C(=O)N[C@H]1CCC[C@H]1C(=O)NC(Cc1ccccc1)C(=O)N1CCCC1C(N)=O` (stereo partly specified): the TGI was over 100 µM.

In turn, `c1ccc(NN=C(c2ccccn2)c2ccccn2)nc1` returned a TGI of over 100 µM.

Turning to `N#Cc1[nH]c(=S)[nH]c1N`, the TGI was over 100 µM.

As for `N#CC1=C(Nc2ccccc2)SC=C(c2ccccc2)NC1=NCc1ccccc1`, the TGI was over 100 µM.

On to `COC1=CC2C(c3cc4ccccc4n3S(=O)(=O)c3ccccc3)CC1CN2C(=O)OCc1ccccc1` (stereo unspecified), for which the TGI was over 100 µM.

`CNC(=S)N=Nc1c(O)n(CN2CCOCC2)c2ccc([N+](=O)[O-])cc12`: the TGI is 31.2 µM.

As to `COc1ccc(-c2csc(Cc3nc4ccccc4c(=O)n3-c3ccc(Cl)cc3)n2)cc1`, the TGI is over 100 µM.

Turning to `COc1ccc(NC(=O)N(C)CC2(O)CCC(C(C)(C)C)CC2)cc1` (stereo unspecified), the TGI is over 100 µM.

Take `CN(C)CCNC(=O)c1ccc2nc3c(nc2c1)C(=O)c1ccccc1-3`: the TGI is over 100 µM.

`C/C(=N/NC(=S)Nc1ccc(Cl)cc1)c1cccc(/C(C)=N\NC(=S)Nc2ccc(Cl)cc2)n1` displayed a TGI of over 100 µM.

In turn, `COC(=O)C1(C(=O)OC)C/C(C)=C(/C)SCCCS1` had a TGI of over 100 µM.

Compound `CC1(C)CC(=O)C(C=NC(=O)c2ccncc2)=C(O)C1` had a TGI of over 100 µM.

The subject of another experiment is SF-295 CNS. In words: inhibition of tumour cell growth, NCI panel, 48 h.
Regarding `CC(C)CC(NC(=O)C(CI)Cc1ccccc1)C(=O)Nc1ccccc1` (stereo unspecified), the TGI is over 100 µM.

In the case of `CC(CO)CCNc1ncnc2c1ncn2CCC(=O)OC(C)(C)C` (stereo unspecified), the TGI is over 100 µM.

`COc1ccc(-n2cnn3c(=O)c4cn[nH]c4nc23)cc1` showed a TGI of over 10 µM.

In turn, `CC(C)(C)OC(=O)NC(Cc1ccc(OC(C)(C)C)cc1)C(=O)N[C@H]1CCC[C@H]1C(=O)NC(Cc1ccccc1)C(=O)N1CCCC1C(N)=O` (stereo partly specified) returned a TGI of over 100 µM.

With `c1ccc(NN=C(c2ccccn2)c2ccccn2)nc1`, the TGI is over 100 µM.

Consider `N#Cc1[nH]c(=S)[nH]c1N`, for which the TGI was over 100 µM.

As to `COC1=CC2C(c3cc4ccccc4n3S(=O)(=O)c3ccccc3)CC1CN2C(=O)OCc1ccccc1` (stereo unspecified), the TGI was over 100 µM.

As to `CNC(=S)N=Nc1c(O)n(CN2CCOCC2)c2ccc([N+](=O)[O-])cc12`, the TGI came to 53.4 µM.

As to `COc1ccc(-c2csc(Cc3nc4ccccc4c(=O)n3-c3ccc(Cl)cc3)n2)cc1`, the TGI is over 100 µM.
